Test results published in publication PMC9676650, “Binding pocket stabilization by high-throughput screening of yeast display libraries” (Frontiers in Molecular Biosciences, 2022).
Where a chain is given by its changes, count along the chain named. Values joined by “and” are separate entries in the source; they are usually repeats but may differ in a detail not shown here. Identical values can stand only once.

What was measured:
FKBP51 variant D68N = target: T1, FKBP51 variant D68N (Homo sapiens, UniProt Q13451, D68N); assay: Fluorescence polarization tracer binding, FKBP51 D68N; details: for Fold change in Kd improvement: FKBP51 D68N compared to WT; for Kd: FKBP51 D68N, 0.5 nM SAFit-FL, 5 nM Mcyc-TA or 1 nM FK [431]-TA, 30 min room temperature
T1 construct: made in house; host or cells: E. coli BL21 (DE3)
T1 sequence (Q13451 1-140 D68N): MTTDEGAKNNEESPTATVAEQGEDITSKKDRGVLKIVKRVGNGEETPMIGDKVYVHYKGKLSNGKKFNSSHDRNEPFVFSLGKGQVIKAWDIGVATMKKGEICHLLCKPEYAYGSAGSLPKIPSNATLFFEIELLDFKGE
Description: (§1) All ligands and tracers used for fluorescence polarization assays had purities of more than 95%. The following ligands and tracers were used for fluorescence polarization and FACS screening experiments: •SAFit-FL tracer (1): Fluorescein conjugated analog of the iFit ligand class. •Mcyc-TA tracer (2): TAMRA conjugated macrocyclic ligand (5). •FK [431]-TA tracer (3): TAMRA conjugated FK [431] ligand (6). •SAFit1 ligand (4): analog of the iFit ligand class. •macrocyclic ligand (5):macrocyclic analog of the SAFit class ligands. •FK [431] ligand (6):bicyclic analog of the immunosuppressive drug FK506
(§2) The binding of the generated FKBP51 variants to different conformation-sensitive FKBP ligands was investigated by fluorescence polarization assays. Therefore, a serial dilution of the respective FKBP51 variant in assay buffer (20 mM HEPES pH 8.0, 150 mM NaCl, 0.015% Triton X-100) was placed in a 384-well assay plate and a defined amount of the respective fluorescent tracer (0.5 nM of the SAFit based tracer SAFit-FL (1), 5 nM of the macrocyclic tracer Mcyc-TA 2) or 1 nM of the FK [431]-TA 3) in assay buffer was added to the protein buffer mixture. After incubation for 30 min at room temperature, the fluorescence polarization was measured with a plate reader. The obtained results for each 3 independent experiments were normalized with respect to the maximal binding signal and fitted to a one-site binding model as described by [Wang et al., 1992] yielding the respective binding constants. tracer bound=100/Lt×0.5×(Rt+Lt+KD−(Rt+Lt+KD)^2−4×LtRt) With L t , total concentration of the tracer, R t , total concentration of the receptor and K D binding constant of the complex RL.

FKBP51 variant N63G = target: T2, FKBP51 variant N63G (Homo sapiens, UniProt Q13451, N63G); assay: Fluorescence polarization tracer binding, FKBP51 N63G; details: for Fold change in Kd improvement: FKBP51 N63G compared to WT; for Kd: FKBP51 N63G, 0.5 nM SAFit-FL, 5 nM Mcyc-TA or 1 nM FK [431]-TA, 30 min room temperature
T2 construct: made in house; host or cells: E. coli BL21 (DE3)
T2 sequence (Q13451 1-140 N63G): T1 sequence (Q13451 1-140 D68N) with N63G, N68D
Description: as §1, §2

FKBP51 variant G64E = target: T3, FKBP51 variant G64E (Homo sapiens, UniProt Q13451, G64E); assay: Fluorescence polarization tracer binding, FKBP51 G64E; details: for Fold change in Kd improvement: FKBP51 G64E compared to WT; for Kd: FKBP51 G64E, 0.5 nM SAFit-FL, 5 nM Mcyc-TA or 1 nM FK [431]-TA, 30 min room temperature
T3 construct: made in house; host or cells: E. coli BL21 (DE3)
T3 sequence (Q13451 1-140 G64E): T1 sequence (Q13451 1-140 D68N) with G64E, N68D
Description: as §1, §2

FKBP51 variant F67S = target: T4, FKBP51 variant F67S (Homo sapiens, UniProt Q13451, F67S); assay: Fluorescence polarization tracer binding, FKBP51 F67S; details: for Fold change in Kd improvement: FKBP51 F67S compared to WT; for Kd: FKBP51 F67S, 0.5 nM SAFit-FL, 5 nM Mcyc-TA or 1 nM FK [431]-TA, 30 min room temperature
T4 construct: made in house; host or cells: E. coli BL21 (DE3)
T4 sequence (Q13451 1-140 F67S): T1 sequence (Q13451 1-140 D68N) with F67S, N68D
Description: as §1, §2

FKBP51 variant F67E = target: T5, FKBP51 variant F67E (Homo sapiens, UniProt Q13451, F67E); assay: Fluorescence polarization tracer binding, FKBP51 F67E; details: for Kd: FKBP51 F67E, 0.5 nM SAFit-FL, 5 nM Mcyc-TA or 1 nM FK [431]-TA, 30 min room temperature
T5 construct: made in house; host or cells: E. coli BL21 (DE3)
T5 sequence (Q13451 1-140 F67E): T1 sequence (Q13451 1-140 D68N) with F67E, N68D
Description: as §1, §2

FKBP51 variant G64T = target: T6, FKBP51 variant G64T (Homo sapiens, UniProt Q13451, G64T); assay: Fluorescence polarization tracer binding, FKBP51 G64T; details: for Fold change in Kd improvement: FKBP51 G64T compared to WT; for Kd: FKBP51 G64T, 0.5 nM SAFit-FL, 5 nM Mcyc-TA or 1 nM FK [431]-TA, 30 min room temperature
T6 construct: made in house; host or cells: E. coli BL21 (DE3)
T6 sequence (Q13451 1-140 G64T): T1 sequence (Q13451 1-140 D68N) with G64T, N68D
Description: as §1, §2

FKBP51 variant G64S = target: T7, FKBP51 variant G64S (Homo sapiens, UniProt Q13451, G64S); assay: Fluorescence polarization tracer binding, FKBP51 G64S; details: for Kd: FKBP51 G64S, 0.5 nM SAFit-FL, 5 nM Mcyc-TA or 1 nM FK [431]-TA, 30 min room temperature
T7 construct: made in house; host or cells: E. coli BL21 (DE3)
T7 sequence (Q13451 1-140 G64S): T1 sequence (Q13451 1-140 D68N) with G64S, N68D
Description: as §1, §2

FKBP51 variant D68Y = target: T8, FKBP51 variant D68Y (Homo sapiens, UniProt Q13451, D68Y); assay: Fluorescence polarization tracer binding, FKBP51 D68Y; details: for Fold change in Kd improvement: FKBP51 D68Y compared to WT; for Kd: FKBP51 D68Y, 0.5 nM SAFit-FL, 5 nM Mcyc-TA or 1 nM FK [431]-TA, 30 min room temperature
T8 construct: made in house; host or cells: E. coli BL21 (DE3)
T8 sequence (Q13451 1-140 D68Y): T1 sequence (Q13451 1-140 D68N) with N68Y
Description: as §1, §2

| Structure (SMILES) | Fold change in Kd improvement (FKBP51 variant D68N) [fold] | Kd (FKBP51 variant D68N) [nM] | Fold change in Kd improvement (FKBP51 variant N63G) [fold] | Kd (FKBP51 variant N63G) [nM] | Fold change in Kd improvement (FKBP51 variant G64E) [fold] | Kd (FKBP51 variant G64E) [nM] | Fold change in Kd improvement (FKBP51 variant F67S) [fold] | Kd (FKBP51 variant F67S) [nM] | Fold change in Kd improvement (FKBP51 variant F67E; FKBP51 F67E compared to WT) [fold] | Kd (FKBP51 variant F67E) [nM] | Fold change in Kd improvement (FKBP51 variant G64T) [fold] | Kd (FKBP51 variant G64T) [nM] | Kd (FKBP51 variant G64S) [nM] | Fold change in Kd improvement (FKBP51 variant D68Y) | Fold change in Kd improvement (FKBP51 variant D68Y; listed as 3) | Kd (FKBP51 variant D68Y) [nM] | Fold change in Kd improvement (FKBP51 variant G64S; FKBP51 G64S compared to WT) |
| --- | --- | --- | --- | --- | --- | --- | --- | --- | --- | --- | --- | --- | --- | --- | --- | --- | --- |
| CN(C)c1ccc2c(-c3cc(C(=O)NCCn4cc([C@H]5CN(Cc6ccccn6)C(=O)[C@@H]6CCC[C@H]5N6S(=O)(=O)c5cc(Cl)cc(Cl)c5)nn4)ccc3C(=O)O)c3ccc(=[N+](C)C)cc-3oc2c1 [FK [431]-TA] | 0.035 | 146 ± 6 | 0.850 | 6 ± 0.2 | 0.268 | 19 ± 1 | 0.004 | 1240 ± 60 | 0.004 | 1330 ± 66 | 0.084 | 61 ± 2 | 11 ± 1 | 0.134 fold | no improvement | 38 ± 2 | – |
| COc1ccc(CC[C@H]2OC(=O)[C@@H]3CCCCN3C(=O)[C@@H](C3CCCCC3)NC(=O)C(C)(C)NC(=O)COc3cc(OCCNC(=O)c4ccc(C(=O)O)c(-c5c6ccc(=[N+](C)C)cc-6oc6cc(N(C)C)ccc56)c4)cc2c3)cc1OC [Mcyc-TA] | 4.00 | 6 ± 1 | 3.16 | 7.6 ± 0.9 | 7.27 | 3.3 ± 0.3 | 1.14 | 21 ± 2 | – | 5 ± 0.5 | 1.41 | 17 ± 1 | 0.7 ± 0.2 | 34 fold and 34.29 fold | – | 0.7 ± 0.1 | 34 fold and 34.29 fold |
